According to patent US5165931A, “Peptifluorin and neopeptifluorin” (E. R. Squibb & Sons, Inc., priority 1991, dated 1992):

Experiments:
bacteria = test: antibacterial activity (general statement); type: cell-based
Description: (§1) The following methodology was used to determine the minimum inhibitory concentration (hereinafter referred to as MIC) of the compound of this invention against bacteria. The test organisms were grown in 20 ml of Antibiotic Assay Broth (Difco) by inoculating the broth (in tubes) with a loopful of the organism from a BHI (Difco) agar slant. The inoculated tubes were incubated at 37° C. for 18 to 24 hours. These cultures were assumed to contain 10^9 colony forming units (CFU) per ml. The cultures were diluted 1:100 to give a final inoculum level of 10^7 CFU; dilutions were made with Yeast Beef Broth (Difco). The test compound was dissolved in an appropriate diluent at a concentration of 1,000 μg/ml. Two-fold dilutions were made in Yeast Beef Broth (Difco), resulting in
(§2) a range from 1000 μg/ml to 0.5 μg/ml. A 1.5 ml portion of each dilution was placed into individual petri dishes to which 13.5 ml of K-10 agar was added. The composition of K-10 agar is:
The final drug concentration in the agar ranged from 100 μg/ml to 0.05 μg/ml. Organism growth control plates containing agar only were prepared and inoculated before and after the test plates. […]
The plates were incubated at 37° C. for 18 hours and the MICs determined. […]

mevalonate kinase = test: inhibition of mevalonate kinase from yeast; type: biochemical
Candida glabrata = test: agar dilution MIC assay, yeasts; type: cell-based; details: strain SC 11,267; 37° C., 36-48 hours
Description: as §1, §2
(§3) The final drug concentration in the agar ranged from 100 μg/ml to 0.05 μg/ml. Organism growth control plates containing agar only were prepared and inoculated before and after the test plates. The organisms were applied to the agar surface of each plate with a Denly Multipoint Inoculator (which delivers approximately 0.001 ml of each inoculum) resulting in a final inoculum of 10^4 CFU on the agar surface.
(§4) The plates were incubated at 37° C. for 18 hours and the MICs determined. The MIC is the lowest concentration of compound inhibiting growth of the organism.
(§5) The methodology described above was modified in the assay for activity against yeasts. Fresh F-4 slants of the test organisms were obtained from frozen vials (-70° C.). The cultures were inoculated into tubes of F-4 broth and incubated at 37° C. for 18 to 24 hours, at which time the average cell count was assumed to be 5×10^7 CFU per ml. These were diluted 1:50 with fresh F-4 broth to give an inoculum level of 1×10^6 CFU per mL. The organisms were then dispensed into a sterile template (0.8 ml per well) and delivered onto the surface of each plate containing test compound as described above with a Denly Multipoint Inoculator, resulting in a final inoculum of 10^3 CFU on the agar surface.
(§6) The composition of the F-4 broth is:
(§7) The medium was sterilized at 121° C. for 15 minutes at 15 psi.
(§8) F-4 agar has the same composition as the broth but with the addition of 15 g agar per liter.
(§9) The results of the yeast, agar dilution assays (determined after incubation at 37° C. for 36-48 hours) are: […]

Candida albicans = test: agar dilution MIC assay, yeasts; type: cell-based; details: 37° C., 36-48 hours
Description: as §1, §2, §3, §4, §5, §6, §7, §8, §9

Candida tropicalis = test: agar dilution MIC assay, yeasts; type: cell-based; details: 37° C., 36-48 hours
Description: as §1, §2, §3, §4, §5, §6, §7, §8, §9

Saccharomyces cerevisiae = test: agar dilution MIC assay, yeasts; type: cell-based; details: 37° C., 36-48 hours
Description: as §1, §2, §3, §4, §5, §6, §7, §8, §9

Candida krusei = test: agar dilution MIC assay, yeasts; type: cell-based; details: strain SC 2967; 37° C., 36-48 hours
Description: as §1, §2, §3, §4, §5, §6, §7, §8, §9

Streptococcus faecalis = test: agar dilution MIC assay, bacteria; type: cell-based; details: strain SC 9011; K-10 agar, 37° C., 18 hours
Description: as §1, §2
(§10) The medium was sterilized at 121° C. for 15 minutes at 15 pounds psi.
as §3, §4
(§11) The results of the agar dilution assays with bacteria are: […]

Micrococcus luteus = test: agar dilution MIC assay, bacteria; type: cell-based; details: strain SC 2495; K-10 agar, 37° C., 18 hours
Description: as §1, §2, §10, §3, §4, §11

Shigella sonnei = test: agar dilution MIC assay, bacteria; type: cell-based; details: strain SC 8449; K-10 agar, 37° C., 18 hours
Description: as §1, §2, §10, §3, §4, §11

Klebsiella pneumoniae = test: agar dilution MIC assay, bacteria; type: cell-based; details: K-10 agar, 37° C., 18 hours
Description: as §1, §2, §10, §3, §4, §11

Enterobacter cloacae = test: agar dilution MIC assay, bacteria; type: cell-based; details: strain SC 8236; K-10 agar, 37° C., 18 hours
Description: as §1, §2, §10, §3, §4, §11

Salmonella typhosa = test: agar dilution MIC assay, bacteria; type: cell-based; details: strain SC 1195; K-10 agar, 37° C., 18 hours
Description: as §1, §2, §10, §3, §4, §11

Escherichia coli = test: agar dilution MIC assay, bacteria; type: cell-based; details: K-10 agar, 37° C., 18 hours
Description: as §1, §2, §10, §3, §4, §11

Staphylococcus aureus = test: agar dilution MIC assay, bacteria; type: cell-based; details: K-10 agar, 37° C., 18 hours
Description: as §1, §2, §10, §3, §4, §11

Streptococcus agalactiae = test: agar dilution MIC assay, bacteria; type: cell-based; details: strain SC 14,008; K-10 agar, 37° C., 18 hours
Description: as §1, §2, §10, §3, §4, §11

yeasts = test: antifungal activity (general statement); type: cell-based
Description: as §5

neopeptifluorin
antibacterial activity (bacteria): broad spectrum antibacterial activity | inhibiting mevalonate kinase from yeast (mevalonate kinase): moderately active | MIC (Candida glabrata): 25.0 µg/mL | MIC (Candida albicans; strain SC 5314): 6.3 µg/mL | MIC (Candida albicans; strain SC 9177): 25.0 µg/mL | MIC (Candida albicans; strain SC 11,422): 12.5 µg/mL | MIC (Candida tropicalis; strain SC 8159): 6.3 µg/mL | MIC (Candida tropicalis; strain SC 9861): 3.1 µg/mL | MIC (Saccharomyces cerevisiae; strain SC 1600): 6.3 µg/mL | MIC (Saccharomyces cerevisiae; strain SC 12,955): 12.5 µg/mL | MIC (Saccharomyces cerevisiae; strain SGY 1139): 1.6 µg/mL | MIC (Candida krusei): 100 µg/mL | MIC (Streptococcus faecalis): 6.3 µg/mL | MIC (Micrococcus luteus): 6.3 µg/mL | MIC (Shigella sonnei): 25 µg/mL | MIC (Klebsiella pneumoniae; strain SC 9527): > 100 µg/mL | MIC (Klebsiella pneumoniae; strain SC 10,440): 25.0 µg/mL | MIC (Enterobacter cloacae): 12.5 µg/mL | MIC (Salmonella typhosa): 100 µg/mL | MIC (Escherichia coli; strain SC 8294): 50.0 µg/mL | MIC (Escherichia coli; strain SC 10,857): 12.5 µg/mL | MIC (Escherichia coli; strain SC 10,896): 12.5 µg/mL | MIC (Staphylococcus aureus; strain SC 1276): 3.1 µg/mL | MIC (Staphylococcus aureus; strain SC 2399): 6.3 µg/mL | MIC (Staphylococcus aureus; strain SC 2400): 6.3 µg/mL | MIC (Streptococcus agalactiae): 6.3 µg/mL | antifungal activity (yeasts): antifungal activity

peptifluorin
antibacterial activity (bacteria): broad spectrum antibacterial activity | inhibiting mevalonate kinase from yeast (mevalonate kinase): moderately active | MIC (Candida glabrata): 12.5 µg/mL | MIC (Candida albicans; strain SC 5314): 12.5 µg/mL | MIC (Candida albicans; strain SC 9177): 25.0 µg/mL | MIC (Candida albicans; strain SC 11,422): 12.5 µg/mL | MIC (Candida tropicalis; strain SC 8159): 12.5 µg/mL | MIC (Candida tropicalis; strain SC 9861): 3.1 µg/mL | MIC (Saccharomyces cerevisiae; strain SC 1600): 12.5 µg/mL | MIC (Saccharomyces cerevisiae; strain SC 12,955): 25.0 µg/mL | MIC (Saccharomyces cerevisiae; strain SGY 1139): 3.1 µg/mL | MIC (Candida krusei): 100 µg/mL | MIC (Streptococcus faecalis): 6.3 µg/mL | MIC (Micrococcus luteus): 6.3 µg/mL | MIC (Shigella sonnei): 25.0 µg/mL | MIC (Klebsiella pneumoniae; strain SC 9527): > 100.0 µg/mL | MIC (Klebsiella pneumoniae; strain SC 10,440): 50.0 µg/mL | MIC (Enterobacter cloacae): 25.0 µg/mL | MIC (Salmonella typhosa): > 100.0 µg/mL | MIC (Escherichia coli; strain SC 8294): > 100.0 µg/mL | MIC (Escherichia coli; strain SC 10,857): 50.0 µg/mL | MIC (Escherichia coli; strain SC 10,896): 12.5 µg/mL | MIC (Staphylococcus aureus; strain SC 1276): 6.3 µg/mL | MIC (Staphylococcus aureus; strain SC 2399): 6.3 µg/mL | MIC (Staphylococcus aureus; strain SC 2400): 6.3 µg/mL | antifungal activity (yeasts): antifungal activity
